Test results as given in the NIST ThermoML archive (doi:10.1016/j.fluid.2018.09.026).
“And” between values parts separate entries of the source, which are not always exact repeats. Equal entries are not always repeated. ± gives the expanded uncertainty stated by the source.

Conditions: Liquid; for mass density: Vibrating tube method; for viscosity: 362.81 K, Vibrating wire viscometry

OCCOCCO [diethylene glycol]
Conditions | mass density
343.15 K, 3060 kPa | 1081.2 ± 4.3 kg/m3
343.15 K, 5040 kPa | 1082.3 ± 4.3 kg/m3
343.15 K, 6970 kPa | 1083.3 ± 4.3 kg/m3
343.15 K, 9950 kPa | 1084.8 ± 4.4 kg/m3
343.15 K, 14870 kPa | 1087.3 ± 4.4 kg/m3
343.15 K, 19740 kPa | 1089.6 ± 4.4 kg/m3
343.15 K, 24710 kPa | 1092.1 ± 4.4 kg/m3
343.15 K, 29560 kPa | 1094.4 ± 4.4 kg/m3
343.15 K, 34490 kPa | 1096.6 ± 4.4 kg/m3
343.15 K, 39350 kPa | 1098.8 ± 4.4 kg/m3
343.15 K, 44290 kPa | 1101 ± 4.4 kg/m3
343.15 K, 49180 kPa | 1103.1 ± 4.4 kg/m3
343.15 K, 54070 kPa | 1105.2 ± 4.4 kg/m3
343.15 K, 58980 kPa | 1107.3 ± 4.5 kg/m3
343.15 K, 63910 kPa | 1109.3 ± 4.5 kg/m3
343.15 K, 68720 kPa | 1111.2 ± 4.5 kg/m3
353.15 K, 100 kPa | 1072.2 ± 4.3 kg/m3
353.15 K, 560 kPa | 1072.5 ± 4.3 kg/m3
353.15 K, 1090 kPa | 1072.8 ± 4.3 kg/m3
353.15 K, 1550 kPa | 1073 ± 4.3 kg/m3
353.15 K, 2080 kPa | 1073.3 ± 4.3 kg/m3
353.15 K, 3040 kPa | 1073.8 ± 4.3 kg/m3
353.15 K, 5060 kPa | 1074.9 ± 4.3 kg/m3
353.15 K, 7020 kPa | 1076 ± 4.3 kg/m3
353.15 K, 9970 kPa | 1077.5 ± 4.3 kg/m3
353.15 K, 14830 kPa | 1080.1 ± 4.3 kg/m3
353.15 K, 19740 kPa | 1082.6 ± 4.3 kg/m3
353.15 K, 24680 kPa | 1085.1 ± 4.4 kg/m3
353.15 K, 29560 kPa | 1087.5 ± 4.4 kg/m3
353.15 K, 34550 kPa | 1089.8 ± 4.4 kg/m3
353.15 K, 39420 kPa | 1092.1 ± 4.4 kg/m3
353.15 K, 44280 kPa | 1094.3 ± 4.4 kg/m3
353.15 K, 49230 kPa | 1096.5 ± 4.4 kg/m3
353.15 K, 54110 kPa | 1098.7 ± 4.4 kg/m3
353.15 K, 59020 kPa | 1100.8 ± 4.4 kg/m3
353.15 K, 64010 kPa | 1102.9 ± 4.4 kg/m3
353.15 K, 68770 kPa | 1104.8 ± 4.5 kg/m3
363.08 K, 100 kPa | 1064.5 ± 4.3 kg/m3 and 1064.4 ± 4.3 kg/m3
363.08 K, 620 kPa | 1064.7 ± 4.3 kg/m3
363.08 K, 1110 kPa | 1065 ± 4.3 kg/m3
363.08 K, 1570 kPa | 1065.2 ± 4.3 kg/m3
363.08 K, 2100 kPa | 1065.5 ± 4.3 kg/m3
363.08 K, 3020 kPa | 1066 ± 4.3 kg/m3
363.08 K, 5070 kPa | 1067.2 ± 4.3 kg/m3
363.08 K, 7000 kPa | 1068.3 ± 4.3 kg/m3
363.08 K, 9970 kPa | 1069.9 ± 4.3 kg/m3
363.08 K, 14840 kPa | 1072.6 ± 4.3 kg/m3
363.08 K, 19750 kPa | 1075.1 ± 4.3 kg/m3
363.08 K, 24660 kPa | 1077.7 ± 4.3 kg/m3
363.08 K, 29610 kPa | 1080.2 ± 4.3 kg/m3
363.08 K, 34480 kPa | 1082.6 ± 4.3 kg/m3
363.08 K, 39400 kPa | 1084.9 ± 4.4 kg/m3
363.08 K, 44290 kPa | 1087.2 ± 4.4 kg/m3
363.08 K, 49160 kPa | 1089.5 ± 4.4 kg/m3
363.08 K, 54110 kPa | 1091.7 ± 4.4 kg/m3
363.08 K, 58990 kPa | 1093.9 ± 4.4 kg/m3
363.08 K, 63880 kPa | 1096 ± 4.4 kg/m3
363.08 K, 68760 kPa | 1098 ± 4.4 kg/m3

Conditions | viscosity
230 kPa | 3.458 ± 0.14 mPa·s [middle of 4 runs]
240 kPa | 3.444 ± 0.14 mPa·s
1070 kPa | 3.462 ± 0.14 mPa·s and 3.469 ± 0.14 mPa·s
2190 kPa | 3.473 ± 0.14 mPa·s and 3.514 ± 0.14 mPa·s and 3.458 ± 0.14 mPa·s
5080 kPa | 3.546 ± 0.14 mPa·s [middle of 5 runs]
9970 kPa | 3.652 ± 0.15 mPa·s [middle of 4 runs]
20040 kPa | 3.834 ± 0.16 mPa·s
20050 kPa | 3.862 ± 0.16 mPa·s and 3.82 ± 0.15 mPa·s and 3.837 ± 0.16 mPa·s
30200 kPa | 4.039 ± 0.16 mPa·s
30210 kPa | 4.007 ± 0.16 mPa·s
40240 kPa | 4.264 ± 0.17 mPa·s and 4.237 ± 0.17 mPa·s
40250 kPa | 4.205 ± 0.17 mPa·s and 4.242 ± 0.17 mPa·s
50100 kPa | 4.435 ± 0.18 mPa·s
50110 kPa | 4.47 ± 0.18 mPa·s and 4.453 ± 0.18 mPa·s
69940 kPa | 4.921 ± 0.2 mPa·s
69950 kPa | 4.913 ± 0.2 mPa·s
70000 kPa | 4.894 ± 0.2 mPa·s
70020 kPa | 4.924 ± 0.2 mPa·s
